Reference: ChEMBL document CHEMBL3797052 (Eur J Med Chem, 2016)

How the values were obtained:
[1] = Antiproliferative activity against human RPMI8226 cells assessed as cell growth at 10^-5 M after 48 hrs by sulforhodamine B assay; type: functional; conditions: RPMI-8226, 48 h, read-out: Activity
[2] = Antiproliferative activity against human HOP62 cells assessed as cell growth at 10^-5 M after 48 hrs by sulforhodamine B assay; type: functional; conditions: HOP-62, 48 h, read-out: Activity
[3] = Antiproliferative activity against human HOP92 cells assessed as cell growth at 10^-5 M after 48 hrs by sulforhodamine B assay; type: functional; conditions: HOP-92, 48 h, read-out: Activity
NCI-H322M = experiment: Antiproliferative activity against human NCI-H322M cells assessed as cell growth at 10^-5 M after 48 hrs by sulforhodamine B assay; type: functional; conditions: read-out: Activity
NCI-H522 = experiment: Antiproliferative activity against human NCI-H522 cells assessed as cell growth at 10^-5 M after 48 hrs by sulforhodamine B assay; type: functional; conditions: NCI-H522, 48 h, read-out: Activity
[4] = Antiproliferative activity against human HCT15 cells assessed as cell growth at 10^-5 M after 48 hrs by sulforhodamine B assay; type: functional; conditions: HCT-15, 48 h, read-out: Activity
KM12 = experiment: Antiproliferative activity against human KM12 cells assessed as cell growth at 10^-5 M after 48 hrs by sulforhodamine B assay; type: functional; conditions: KM12, 48 h, read-out: Activity
[5] = Antiproliferative activity against human SW620 cells assessed as cell growth at 10^-5 M after 48 hrs by sulforhodamine B assay; type: functional; conditions: SW-620, 48 h, read-out: Activity
[6] = Antiproliferative activity against human SF268 cells assessed as cell growth at 10^-5 M after 48 hrs by sulforhodamine B assay; type: functional; conditions: SF-268, 48 h, read-out: Activity
[7] = Antiproliferative activity against human SF539 cells assessed as cell growth at 10^-5 M after 48 hrs by sulforhodamine B assay; type: functional; conditions: SF-539, 48 h, read-out: Activity
U-251 = experiment: Antiproliferative activity against human U251 cells assessed as cell growth at 10^-5 M after 48 hrs by sulforhodamine B assay; type: functional; conditions: U-251, 48 h, read-out: Activity
[8] = Antiproliferative activity against human LOXIMVI cells assessed as cell growth at 10^-5 M after 48 hrs by sulforhodamine B assay; type: functional; conditions: LOX IMVI, read-out: Activity
ACHN = experiment: Antiproliferative activity against human ACHN cells assessed as cell growth at 10^-7 M after 48 hrs by sulforhodamine B assay; type: functional; conditions: read-out: Activity
MDA-MB-435 = experiment: Antiproliferative activity against human MDA-MB-435 cells assessed as cell growth at 10^-5 M after 48 hrs by sulforhodamine B assay; type: functional; conditions: MDA-MB-435, 48 h, read-out: Activity
SK-MEL-2 = experiment: Antiproliferative activity against human SK-MEL-2 cells assessed as cell growth at 10^-5 M after 48 hrs by sulforhodamine B assay; type: functional; conditions: SK-MEL-2, 48 h, read-out: Activity
SK-MEL-28 = experiment: Antiproliferative activity against human SK-MEL-28 cells assessed as cell growth at 10^-5 M after 48 hrs by sulforhodamine B assay; type: functional; conditions: SK-MEL-28, 48 h, read-out: Activity
[9] = Antiproliferative activity against human OVCAR3 cells assessed as cell growth at 10^-5 M after 48 hrs by sulforhodamine B assay; type: functional; conditions: OVCAR-3, 48 h, read-out: Activity
[10] = Antiproliferative activity against human OVCAR4 cells assessed as cell growth at 10^-5 M after 48 hrs by sulforhodamine B assay; type: functional; conditions: OVCAR-4, 48 h, read-out: Activity
[11] = Antiproliferative activity against human OVCAR8 cells assessed as cell growth at 10^-5 M after 48 hrs by sulforhodamine B assay; type: functional; conditions: OVCAR-8, 48 h, read-out: Activity
[12] = Antiproliferative activity against human NCI-ADR-RES cells assessed as cell growth at 10^-5 M after 48 hrs by sulforhodamine B assay; type: functional; conditions: read-out: Activity
[13] = Antiproliferative activity against human SKOV3 cells assessed as cell growth at 10^-5 M after 48 hrs by sulforhodamine B assay; type: functional; conditions: SK-OV-3, 48 h, read-out: Activity
[14] = Antiproliferative activity against human Caki1 cells assessed as cell growth at 10^-5 M after 48 hrs by sulforhodamine B assay; type: functional; conditions: CAKI-1, 48 h, read-out: Activity
[15] = Antiproliferative activity against human RXF393 cells assessed as cell growth at 10^-5 M after 48 hrs by sulforhodamine B assay; type: functional; conditions: RXF 393, 48 h, read-out: Activity
[16] = Antiproliferative activity against human TK10 cells assessed as cell growth at 10^-5 M after 48 hrs by sulforhodamine B assay; type: functional; conditions: TK-10, 48 h, read-out: Activity
[17] = Antiproliferative activity against human PC3 cells assessed as cell growth at 10^-5 M after 48 hrs by sulforhodamine B assay; type: functional; conditions: PC-3, 48 h, read-out: Activity
MCF7 [18] = experiment: Antiproliferative activity against human MCF7 cells assessed as cell growth at 10^-5 M after 48 hrs by sulforhodamine B assay; type: functional; conditions: MCF7, 48 h, read-out: Activity
[19] = Antiproliferative activity against human Hs 578T cells assessed as cell growth at 10^-5 M after 48 hrs by sulforhodamine B assay; type: functional; conditions: read-out: Activity
MCF7 [20] = experiment: Antiproliferative activity against human MCF7 cells assessed as growth inhibition after 48 hrs by sulforhodamine B assay; type: functional; conditions: MCF7, 48 h; for CC50: read-out: LC50 (the source's name)
hERG (KCNH2) = hERG (KCNH2) (Homo sapiens, UniProt Q12809); experiment: Inhibition of human ERG assessed as reduction in channel current at 100 uM by automated patch-clamp electrophysiology assay
Sequence of hERG (KCNH2) (Q12809 whole entry): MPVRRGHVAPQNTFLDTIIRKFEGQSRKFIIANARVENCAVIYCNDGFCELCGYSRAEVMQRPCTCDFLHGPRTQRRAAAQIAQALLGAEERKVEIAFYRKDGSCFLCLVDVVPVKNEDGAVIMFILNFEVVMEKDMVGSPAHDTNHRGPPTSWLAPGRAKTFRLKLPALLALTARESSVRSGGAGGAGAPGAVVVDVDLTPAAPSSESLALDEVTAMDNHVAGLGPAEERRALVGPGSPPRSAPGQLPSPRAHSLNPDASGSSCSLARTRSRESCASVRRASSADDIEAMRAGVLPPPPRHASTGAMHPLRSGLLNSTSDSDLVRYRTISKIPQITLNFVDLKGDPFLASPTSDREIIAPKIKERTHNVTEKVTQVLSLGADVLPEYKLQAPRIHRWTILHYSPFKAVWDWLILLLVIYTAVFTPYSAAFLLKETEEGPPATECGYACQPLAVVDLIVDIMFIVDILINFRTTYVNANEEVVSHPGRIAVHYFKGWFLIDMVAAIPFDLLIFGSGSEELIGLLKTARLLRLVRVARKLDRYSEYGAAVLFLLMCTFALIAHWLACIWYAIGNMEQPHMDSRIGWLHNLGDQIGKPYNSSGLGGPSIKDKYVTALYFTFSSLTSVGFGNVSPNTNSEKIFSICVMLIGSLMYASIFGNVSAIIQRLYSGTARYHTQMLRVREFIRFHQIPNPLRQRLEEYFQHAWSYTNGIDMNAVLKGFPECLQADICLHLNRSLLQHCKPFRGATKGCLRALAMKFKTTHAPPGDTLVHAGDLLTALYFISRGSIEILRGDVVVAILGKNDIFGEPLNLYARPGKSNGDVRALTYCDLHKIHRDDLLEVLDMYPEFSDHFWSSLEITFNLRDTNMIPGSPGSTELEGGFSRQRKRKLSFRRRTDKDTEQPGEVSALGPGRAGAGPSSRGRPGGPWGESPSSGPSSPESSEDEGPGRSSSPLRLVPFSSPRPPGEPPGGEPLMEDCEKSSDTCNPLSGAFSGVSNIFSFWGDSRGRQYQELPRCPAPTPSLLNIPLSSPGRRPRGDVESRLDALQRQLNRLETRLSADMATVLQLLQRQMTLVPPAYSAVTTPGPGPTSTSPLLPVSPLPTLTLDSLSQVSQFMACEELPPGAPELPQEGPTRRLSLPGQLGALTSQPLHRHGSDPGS

CCRF-CEM = experiment: Antiproliferative activity against human CCRF-CEM cells assessed as cell growth at 10^-6 M after 48 hrs by sulforhodamine B assay; type: functional; conditions: read-out: Activity
SR = experiment: Antiproliferative activity against human SR cells assessed as cell growth at 10^-6 M after 48 hrs by sulforhodamine B assay; type: functional; conditions: read-out: Activity
[21] = Antiproliferative activity against human HCT116 cells assessed as cell growth at 10^-6 M after 48 hrs by sulforhodamine B assay; type: functional; conditions: HCT-116, 48 h, read-out: Activity
T47D = experiment: Antiproliferative activity against human T47D cells assessed as cell growth at 10^-5 M after 48 hrs by sulforhodamine B assay; type: functional; conditions: read-out: Activity
786-0 = experiment: Antiproliferative activity against human 786-0 cells assessed as cell growth at 10^-8 M after 48 hrs by sulforhodamine B assay; type: functional; conditions: 786-0, 48 h, read-out: Activity
[22] = Antiproliferative activity against human UO31 cells assessed as cell growth at 10^-6 M after 48 hrs by sulforhodamine B assay; type: functional; conditions: UO-31, 48 h, read-out: Activity
[23] = Antiproliferative activity against human DU145 cells assessed as cell growth at 10^-6 M after 48 hrs by sulforhodamine B assay; type: functional; conditions: DU-145, 48 h, read-out: Activity
MDA-MB-231 = experiment: Antiproliferative activity against human MDA-MB-231 cells assessed as cell growth at 10^-4 M after 48 hrs by sulforhodamine B assay; type: functional; conditions: MDA-MB-231, 48 h, read-out: Activity

Row | Compound | growth at 10 µM [1] [%] | growth at 10 µM [2] [%] | growth at 10 µM [3] [%] | growth at 10 µM (NCI-H322M) [%] | growth at 10 µM (NCI-H522) [%] | growth at 10 µM [4] [%] | growth at 10 µM (KM12) [%] | growth at 10 µM [5] [%] | growth at 10 µM [6] [%] | growth at 10 µM [7] [%] | growth at 10 µM (U-251) [%] | growth at 0.1 µM (ACHN) [%] | growth at 10 µM (MDA-MB-435) [%] | growth at 10 µM (SK-MEL-2) [%] | growth at 10 µM (SK-MEL-28) [%] | growth at 10 µM [9] [%] | growth at 10 µM [10] [%] | growth at 10 µM [11] [%] | growth at 10 µM [12] [%] | growth at 10 µM [13] [%] | further results
1 | CNC(=O)c1cc(Oc2ccc3nc(NC(=O)Nc4cc(C(F)(F)F)cc(C(F)(F)F)c4)sc3c2)ccn1 | -37 | -72 | -69 | -57 | -58 | -70 | -58 | -74 | -77 | -78 | -98 | 99 | -69 | -53 | -75 | -93 | -64 | -93 | -62 | -71 | growth at 10 µM [8]: -93%; growth at 10 µM [14]: -77%; growth at 10 µM [15]: -69%; growth at 10 µM [16]: -79%; growth at 10 µM [17]: -65%; growth at 10 µM (MCF7 [18]): -59%; growth at 10 µM [19]: -34%; GI50 (MCF7 [20]): 1.05 µM; TGI (MCF7 [20]): 2.93 µM; CC50 (MCF7 [20]): 8.23 µM; inhibition at 100 µM (hERG (KCNH2)): 30.2%; growth at 1 µM (CCRF-CEM): 52%; growth at 1 µM (SR): 34%; growth at 1 µM [21]: 57%; growth at 10 µM (T47D): -56%; growth at 0.01 µM (786-0): 92%; growth at 1 µM [22]: 65%; growth at 1 µM [23]: 63%; growth at 100 µM (MDA-MB-231): -59%
2 | CNC(=O)c1cc(Oc2ccc3nc(NC(=O)Nc4ccc(Cl)c(C(F)(F)F)c4)sc3c2)ccn1 | -10 | -42 | -54 | -14 | 6 | -9 | 20 | 4 | 1 | -60 | -66 | 102 | -36 | 37 | -68 | -70 | -75 | -40 | -21 | -54 | growth at 10 µM [14]: -16%; growth at 10 µM [15]: -45%; growth at 10 µM [16]: -55%; growth at 10 µM [17]: -67%; growth at 10 µM (MCF7 [18]): -3%; growth at 10 µM [19]: -17%; GI50 (MCF7 [20]): 1.72 µM; CC50 (MCF7 [20]): > 100 µM; inhibition at 100 µM (hERG (KCNH2)): 26.2%; growth at 1 µM (CCRF-CEM): 73%; growth at 1 µM (SR): 15%; growth at 1 µM [21]: 80%; growth at 10 µM (T47D): -34%; growth at 0.01 µM (786-0): 97%; growth at 1 µM [22]: 108%; growth at 1 µM [23]: 82%; growth at 100 µM (MDA-MB-231): -53%
3 | CNC(=O)c1cc(Oc2ccc3nc(NC(=O)Nc4ccc(Cl)c(Cl)c4)sc3c2)ccn1 | 9 | -79 | -44 | -4 | 20 | -19 | 5 | 42 | -57 | -49 | -84 | 94 | -47 | -30 | -72 | -37 | -68 | -40 | -43 | -74 | growth at 10 µM [8]: -79%; growth at 10 µM [14]: -25%; growth at 10 µM [15]: -74%; growth at 10 µM [16]: -4%; growth at 10 µM [17]: -53%; growth at 10 µM (MCF7 [18]): 4%; growth at 10 µM [19]: -23%; GI50 (MCF7 [20]): 2.65 µM; TGI (MCF7 [20]): > 100 µM; CC50 (MCF7 [20]): > 100 µM; inhibition at 100 µM (hERG (KCNH2)): 47.9%; growth at 1 µM (CCRF-CEM): 100%; growth at 1 µM (SR): 97%; growth at 1 µM [21]: 88%; growth at 10 µM (T47D): -26%; growth at 0.01 µM (786-0): 95%; growth at 1 µM [22]: 106%; growth at 1 µM [23]: 97%; growth at 100 µM (MDA-MB-231): -44%
4 | CNC(=O)c1cc(Oc2ccc3nc(NC(=O)c4cc(C(F)(F)F)cc(C(F)(F)F)c4)sc3c2)ccn1 | 10 | 2 | -11 | 18 | -6 | 19 | 2 | 42 | 11 | 12 | 12 | 100 | 7 | -19 | 22 | -19 | 10 | 8 | 15 | -10 | growth at 10 µM [8]: 11%; growth at 10 µM [14]: 2%; growth at 10 µM [15]: -8%; growth at 10 µM [16]: 8%; growth at 10 µM [17]: 5%; growth at 10 µM (MCF7 [18]): 17%; growth at 10 µM [19]: 6%; GI50 (MCF7 [20]): 3.37 µM; TGI (MCF7 [20]): 18 µM; CC50 (MCF7 [20]): > 100 µM; growth at 1 µM (CCRF-CEM): 93%; growth at 1 µM (SR): 100%; growth at 1 µM [21]: 99%; growth at 10 µM (T47D): -4%; growth at 0.01 µM (786-0): 98%; growth at 1 µM [22]: 78%; growth at 1 µM [23]: 94%; growth at 100 µM (MDA-MB-231): -67%
